Source: US5002948A, “3-[4-[4-substituted-1-piperazinyl]-1-butyl]-1H-2,3-dihydroindoles” (H. Lundbeck A/S, priority 1988, dated 1991)

molecular target: T1, 5-HT1A (Rattus norvegicus, UniProt P19327); assay: Inhibition of 5-methoxy-N,N-dimethyltryptamine (5-MeODMT) induced 5-HT syndrome in rats; assay type: in vivo, Male Wistar rats; design: Male Wistar rats (Mol:Wist) weighing 170-240 g are used; from tissue; host or cells: whole living animal, male Wistar rats (Mol:Wist), s.c. dosing; conditions: rat, sc
T1 sequence (P19327 1-422): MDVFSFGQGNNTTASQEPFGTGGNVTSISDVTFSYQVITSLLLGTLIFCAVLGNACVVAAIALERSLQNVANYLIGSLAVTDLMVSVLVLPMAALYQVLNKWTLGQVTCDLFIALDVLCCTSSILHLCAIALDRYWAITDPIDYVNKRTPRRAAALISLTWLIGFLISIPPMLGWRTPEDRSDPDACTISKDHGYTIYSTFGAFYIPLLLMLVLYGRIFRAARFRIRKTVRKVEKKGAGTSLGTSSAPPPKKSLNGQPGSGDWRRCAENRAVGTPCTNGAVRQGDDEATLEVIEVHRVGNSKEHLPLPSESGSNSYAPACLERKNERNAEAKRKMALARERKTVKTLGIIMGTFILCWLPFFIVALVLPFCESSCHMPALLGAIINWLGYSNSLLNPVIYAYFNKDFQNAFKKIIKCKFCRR
Excerpt: INHIBITION OF 5-METHOXY-N,N-[…] INDUCED 5-HT SYNDROME IN RATS
The so-called 5-HT syndrome is a characteristic behaviour pattern which is induced by 5-HT agonists with effects on 5-HT, possibly 5-HT1A receptors, although lack of specific antagonists make it difficult to evaluate specificity (Smith, L. M. and S. J. Peroutka, Pharmacol. Biochem. & Behaviour 24, 1513-1519, 1986; Tricklebank, M. et al., Eur. J. Pharmacol. 117, 15-24, 1985).
Male Wistar rats (Mol:Wist) weighing 170-240 g are used. Test substrate is injected subcutaneously 30 min. before 5-methoxy-N,N-dimethyltryptamine 5 mg/kg, s.c. Four rats are used for each dose. A control group pretreated with saline is included each test day. Ten, 15 and 20 min later the rats are observed for presence of serotonin (5-HT) syndrome: (1) forepaw treading ("piano playing"), (2) head weaving and (3) hindleg abduction. Further, flat motility is scored. Each part of the syndrome is scored as follows: marked effect (score 2), weak syndrome (score 1) and no effect (score 0). The scores of the three observation times are added. Thus the maximum obtainable score for four rats is 24. The effect of the test substance is expressed as per cent inhibition relative to the control group.
The per cent inhibition of the piano playing syndrome is used as the response, and ED50 values are calculated by log-prohibit analysis.

Structure (SMILES) | ED50
CC1(C)CC(=O)N(CCCCN2CCN(c3ncccn3)CC2)C(=O)C1 [gepirone, reference compound] | 32 µmol/kg
O=C1c2ccccc2S(=O)(=O)N1CCCCN1CCN(c2ncccn2)CC1 [ipsapirone, reference compound] | 26 µmol/kg

molecular target: T1, 5-HT1A; assay: Generalization to discriminative stimulus properties induced by 8-OHDPAT in rats (agonism); assay type: in vivo, Male Wistar rats; design: from tissue; host or cells: whole living animal, male Wistar rats, s.c. dosing; conditions: rat, sc, read-out: ED50, 8-OH DPAT cue agonism
Excerpt: GENERALIZATION TO DISCRIMINATIVE STIMULUS PROPERTIES INDUCED BY 8-OHDPAT IN RATS.
This test model is used to determine the agonist effects of a test compound on 5-HT1A receptors in vivo. A related method is described by Tricklebank, M. D., J. Neill, E. J. Kidd and J. R. Fozard, Eur. J. Pharmacol. 133, 37-56, 1987; Arnt, J., Pharmacology & Toxicology 64, 165-172, 1989.
The procedure is the same as for the antagonism test mentioned above, except that the test compound is substituted for 8-OHDPAT and injected s.c. usually 30 minutes or 45 minutes respectively before beginning of the test.
The per cent drug response obtained for each dose of test compound is used to calculate ED50 values by log-probit analysis.

Structure (SMILES) | ED50
CC1(C)CC(=O)N(CCCCN2CCN(c3ncccn3)CC2)C(=O)C1 [gepirone, reference compound] | 0.81 µmol/kg

same assay, conditions: rat, sc, usually 30 or 45 min before test; substituted for 8-OHDPAT; per cent drug response; read-out: ED50, 8-OH DPAT cue agonism

Structure (SMILES) | ED50
O=C1c2ccccc2S(=O)(=O)N1CCCCN1CCN(c2ncccn2)CC1 [ipsapirone, reference compound] | 1.8 µmol/kg

molecular target: T2, serotonin 5-HT1A receptors (Rattus norvegicus, UniProt P19327); assay: Inhibition of 3H-8-OHDPAT binding to serotonin 5-HT1A receptors in rat brain in vitro; conditions: 3H-8-OHDPAT 1 nM, rat brain membranes minus cerebellum, 37° C., 15 min; read-out: IC50 (3H 8-OH DPAT binding)
T2 construct: membranes from rat brain minus cerebellum; from tissue; host or cells: brain minus cerebellum of male Wistar (Mol:Wist) rats, membranes
T2 sequence (P19327 1-422): T1 sequence (P19327 1-422)
Method: INHIBITION OF ^3 H-8-OHDPAT BINDING TO SEROTONIN 5-HT1A RECEPTORS IN A RAT BRAIN IN VITRO
By this method the inhibition by drugs of the binding of ^3 H-8-OHDPAT (1 nM) to serotonin 5-HT1A receptors in membranes from rat brain minus cerebellum is determined in vitro.
Male Wistar (Mol:Wist) rats (125-250 g) are sacrificed and the brain is dissected and weighed. The brain tissue minus cerebellum is homogenized (Ultra Turrax, 20 sec) in 10 ml of ice cold 50 mM Tris buffer pH 8.0 (at 25° C.) containing 120 mM NaCl, 4 mM CaCl2 and 4 mM MgCl2. The homogenate is centrifuged at 20,000 g for 10 min at 4° C. The pellet is homogenized in 10 ml of buffer and incubated at 37° C. for 10 min. The homogenate is centrifuged as above and the pellet is homogenized in 100 vol (w/v) ice cold buffer containing 10 μ M of parglyine.
Incubation tubes kept on ice in triplicate receive 100 μl of drug solution in water (or water for total binding) and 1000 μ l of tissue suspension (final tissue content corresponds to 10 mg original tissue). The binding experiment is initiated by addition of 100 μ l of ^3 H-8-OHDPAT (final concentration 1 nM) and by placing the tubes in a 37° C. water bath. After incubation for 15 min the samples are filtered under vacuum (0-50 mBar) through Whatman GF/F filters ([…]). The tubes are rinsed with 5 ml ice cold 0.9% NaCl which are then poured on the filters. Thereafter, the filters are washed with 2×5 ml 0.9% NaCl. The filters are placed in counting vials and 4 ml of appropriate scintillation fluid (e.g. Picofluor™15) are added. After shaking for 1 h and storage 2 h in the dark the content of radioactivity is determined by liquid scintillation counting. Specific binding is obtained by subtracting the nonspecific binding in the presence of 10 μ M of 5-HT.
For determination of the inhibition of binding five concentrations of drugs covering 3 decades are used.
The IC50 -value is determined as the concentration, at which the binding is 50% of the total binding in control samples minus the nonspecific binding in the presence of 10 μM of 5-HT.
^3 H-8-OHDPAT from Amersham International plc. England. Specific activity approximately 200 Ci/mmol).

Structure (SMILES) | IC50
COc1ccccc1N1CCN(CCCCc2c[nH]c3ccc(F)cc23)CC1 [Compound 1a, 5-Fluoro-3-[4-[4-(2-methoxyphenyl)-1-piperazinyl]-1-butyl]-1 H-indole] | 11 nM
COc1ccccc1N1CCN(CCCCc2c[nH]c3cc(Cl)ccc23)CC1 [Compound 1b, 6-Chloro-3-[4-[4-(2-methoxyphenyl)-1-piperazinyl]-1-butyl]-1H-indole] | 10 nM
COc1ccccc1N1CCN(CCCCc2c[nH]c3ccccc23)CC1 [Compound 2a, 3-[4[4-(2-methoxyphenyl)-1-piperazinyl]-1-butyl]-1H-indole] | 17 nM
c1cc2c(c(N3CCN(CCCCc4c[nH]c5ccccc45)CC3)c1)OCC2 [Compound 2b, 3-[4-[4-(2,3-dihydro-7-benzofuranyl)-1-piperazinyl]-1-butyl]-1H-indole] | 14 nM
c1cc2c(c(N3CCN(CCCCc4c[nH]c5ccccc45)CC3)c1)OCCO2 [Compound 2c, 3-[4-[4-(1,4-benzodioxan-5-yl)-1-piperazinyl]-1-butyl]-1H-indole] | 5.7 nM
Fc1ccc2[nH]cc(CCCCN3CCN(c4cccc5c4OCCO5)CC3)c2c1 [Compound 2d, 3-[4-[4-(1,4-benzodioxan-5-yl)-1-piperazinyl]-1-butyl]-5-fluoro-1H-indole] | 3.7 nM
Fc1ccc2[nH]cc(CCCCN3CCN(c4cccc5c4OCC5)CC3)c2c1 [Compound 2e] | 15 nM
CSc1ccccc1N1CCN(CCCCC2CNc3ccccc32)CC1 (stereo not shown) [Compound 3b, 3-[4-[4-(2-methylthiophenyl)-1-piperazinyl]-1-butyl]-1H-2,3-dihydroindole] | 14 nM
CC(C)Oc1ccccc1N1CCN(CCCCC2CNc3ccccc32)CC1 (stereo not shown) [Compound 3d, 3-[4-[4-(2-isopropyloxyphenyl)-1-piperazinyl]-1-butyl]-1H-2,3-dihydroindole] | 17 nM
COc1ccccc1N1CCN(CCCCC2CNc3ccc(Cl)cc32)CC1 (stereo not shown) [Compound 3e, 5-chloro-3-[4-[4-(2-methoxyphenyl)-1-piperazinyl]-1-butyl]-1H-2,3-dihydroindole] | 9.2 nM
COc1ccccc1N1CCN(CCCCC2CNc3cc(Cl)ccc32)CC1 (stereo not shown) [Compound 3f, 6-chloro-3-[4-[4-(2-methoxyphenyl)-1-piperazinyl]-1-butyl]-1H-2,3-dihydroindole] | 5.8 nM
COc1ccccc1N1CCN(CCCCC2CNc3ccc(F)cc32)CC1 (stereo not shown) [Compound 3g, 5-fluoro-3-[4-[4-(2-methoxyphenyl)-1-piperazinyl]-1-butyl]-1H-2,3-dihydroindole] | 17 nM
COc1cccc(N2CCN(CCCCC3CNc4ccccc43)CC2)c1OC (stereo not shown) [Compound 3h, 3-[4-[4-(2,3-dimethoxyphenyl)-1-piperazinyl]-1-butyl]-1H-2,3-dihydroindole] | 90 nM
Clc1ccc2c(c1)C(CCCCN1CCN(c3cccc4c3OCCO4)CC1)CN2 (stereo not shown) [Compound 3k, 3-[4-[4-(1,4-benzodioxan-5-yl)-1-piperazinyl]-1-butyl]-5-chloro-1H-2,3-dihydroindole] | 7.6 nM
Fc1ccc2c(c1)C(CCCCN1CCN(c3cccc4c3OCCO4)CC1)CN2 (stereo not shown) [Compound 3l, 3-[4-[4-(1,4-benzodioxan-5-yl)-1-piperazinyl]-1-butyl]-5-fluoro-1H-2,3-dihydroindole] | 4.4 nM
Fc1ccc2c(c1)C(CCCCN1CCN(c3cccc4c3OCC4)CC1)CN2 (stereo not shown) [Compound 3m, 3-[4-[4-(2,3-dihydro-7-benzofuranyl)-1-piperazinyl]-1-butyl]-5-fluoro-1H-2,3-dihydroindole] | 5.7 nM
O=C1c2ccccc2S(=O)(=O)N1CCCCN1CCN(c2ncccn2)CC1 [ipsapirone, reference compound] | 17 nM

Now from value to molecule:

IC50 | Structure (SMILES)
3.5 nM | c1ccc2c(c1)NCC2CCCCN1CCN(c2cccc3c2OCCO3)CC1 (single isomer, unassigned; (+)) [Compound 7c, (+)-3-[4-[4-(1,4-benzodioxan-5-yl)-1-piperazinyl]-1-butyl]-1H-2,3-dihydroindole]
3.1 nM | c1ccc2c(c1)NCC2CCCCN1CCN(c2cccc3c2OCCO3)CC1 (single isomer, unassigned; (-)) [Compound 7d, (-)-b 3-[4-[4-(1,4-benzodioxan-5-yl)-1-piperazinyl]-1-butyl]-1H-2,3-dihydroindole]
17 nM | Oc1ccccc1N1CCN(CCCCC2CNc3ccccc32)CC1 (stereo not shown) [Compound 4a, 3-[4-[4-(2-hydroxyphenyl)-1-piperazinyl]-1-butyl]-1H-2,3-dihydroindole]
35 nM | COc1ccccc1N1CCN(CCCCC2CN(C(C)=O)c3ccccc32)CC1 (stereo not shown) [Compound 5a, 1-Acetyl-3-[4-[4-(2-methoxyphenyl)-1-piperazinyl]-1-butyl]-1H-2,3-dihydroindole]
43 nM | COc1ccccc1N1CCN(CCCCC2CN(C)c3ccccc32)CC1 (stereo not shown) [Compound 6a, 3-[4-[4-(2-methoxyphenyl)-1-piperazinyl]-1-butyl]-1-methyl-1H-2,3-dihydroindole]
51 nM | COc1ccccc1N1CCN(CCCCC2C(=O)Nc3ccccc32)CC1 (stereo not shown) [Compound 8a, 3-[4-[4-(2-methoxyphenyl)-1-piperazinyl]-1-butyl]-1H-2,3-dihydroindol-2-on]
8.6 nM | COc1ccccc1N1CCN(CCCCc2n[nH]c3ccc(C(F)(F)F)cc23)CC1 [Compound 9a, 3-[4-[4-(2-methoxyphenyl)-1-piperazinyl]-1-butyl]-5-trifluoromethyl-1H-indazole]
